Here are results for 16 compounds from patent US20230080054A1 (ILDONG PHARMACEUTICAL CO., LTD., priority 2021, published 2023).

Test [1] deals with platelet-rich plasma (PRP). The test is described as follows: Recalcification time of rat platelet-rich plasma. Conditions: 30 μM, vs 2% DMSO control. As for the experimental part: Example 5: Recalcification Time
1. Materials and Instruments
Isoflurane (Hana Pharm, cat. #9008), Isotonic Sodium Chloride Injection (Daihan Pharm, cat. #331), Citrate-dextrose solution (Sigma-Aldrich, cat. #C3821), Calcium chloride solution (Sigma-Aldrich, cat. #21115), 22G Syringe 10 mL (Koreavaccine), Dimethyl sulfoxide (Sigma-Aldrich, cat. #D5879), Apixaban (AK scientific, cat. #X1060), 96 Well Cell Culture Plates (SPL Life Sciences, cat. #30096), Synergy H4 Hybrid Microplate Reader (BioTek), Combi R515 Multi-purpose Centrifuge (Hanil Scientific), BS-06 Shaking & Heating Baths (JEIO TECH), and PST-60HL-4 Plate Shaker-Thermostat (Bio-San)
Seven-week-old male SD Rat (ORIENT BIO.) were maintained under controlled conditions of temperature (22±2° C.) and 12-h light/12-h dark cycle. Rats were housed in the pathogen-free facility of the Laboratory Animal Research Center in Ildong Pharmaceutical Co. Ltd. All procedures on animals were conducted in accordance with the relevant national regulatory guidelines and individual experiments approved by the Ildong Pharmaceutical Co. Ltd., Institutional Animal Care and Use Committee (IACUC) (approval No.: A2106-3, 2108-4).
The ability of test compounds to interfere with plasma coagulation, in the presence of platelets, was analyzing by measuring the recalcification time of rat plasma. The blood of animals was collected into 15 mL tubes containing Citrate-dextrose solution (9:1 v/v) before performing the assays. For recalcification time, platelet-rich plasma (PRP) samples were obtained by centrifugation at 360×g for 10 minutes. And the PRP were preincubated for 5 minutes (37° C.). In a 96 well microplate, test compounds (2 μL) were treated in 98 μL of platelet rich plasma. After mixing with a pipette, it was incubated at 37° C. for 15 minutes. The reaction was started by addition of 200 μL of pre-warmed CaCl2) (16 mM). Immediately, put the microplate in a microplate reader and the signals were measured by the following steps.
(1) 405 nm wavelength absorbance signals were recorded in every 10 seconds at 37° C.
(2) Basal absorbance signals were recorded for 0 second.
The signal variance of each of the test compounds was obtained by the following step.
(1) Background signals (t=O) were subtracted from recording values, and the resulting values were converted to change values. The values at 0 second were set to be zero.
The retardation time of test compound were calculated by the following formula:
Retardation time (sec)=[log EC50 (test sample)−log EC50 (DMSO control)]
As described above, a DMSO control group is a group to which 2% DMSO was treated.
The assay result is shown in Table 5, where compounds (30 μM) having less than 20 seconds of retardation time are marked by ‘C’; the compounds (30 μM) having retardation time of 20 seconds or more to less than 50 seconds are marked by ‘B’; and the compounds (30 μM) having retardation time of 50 seconds or more are marked by ‘A’.

Test [2] concerns the target T1, human ANO6 (Homo sapiens, UniProt Q4KMQ2).
T1 construct: expressed in transfected cells
T1 sequence (Q4KMQ2 1-931 isoform Q4KMQ2-2): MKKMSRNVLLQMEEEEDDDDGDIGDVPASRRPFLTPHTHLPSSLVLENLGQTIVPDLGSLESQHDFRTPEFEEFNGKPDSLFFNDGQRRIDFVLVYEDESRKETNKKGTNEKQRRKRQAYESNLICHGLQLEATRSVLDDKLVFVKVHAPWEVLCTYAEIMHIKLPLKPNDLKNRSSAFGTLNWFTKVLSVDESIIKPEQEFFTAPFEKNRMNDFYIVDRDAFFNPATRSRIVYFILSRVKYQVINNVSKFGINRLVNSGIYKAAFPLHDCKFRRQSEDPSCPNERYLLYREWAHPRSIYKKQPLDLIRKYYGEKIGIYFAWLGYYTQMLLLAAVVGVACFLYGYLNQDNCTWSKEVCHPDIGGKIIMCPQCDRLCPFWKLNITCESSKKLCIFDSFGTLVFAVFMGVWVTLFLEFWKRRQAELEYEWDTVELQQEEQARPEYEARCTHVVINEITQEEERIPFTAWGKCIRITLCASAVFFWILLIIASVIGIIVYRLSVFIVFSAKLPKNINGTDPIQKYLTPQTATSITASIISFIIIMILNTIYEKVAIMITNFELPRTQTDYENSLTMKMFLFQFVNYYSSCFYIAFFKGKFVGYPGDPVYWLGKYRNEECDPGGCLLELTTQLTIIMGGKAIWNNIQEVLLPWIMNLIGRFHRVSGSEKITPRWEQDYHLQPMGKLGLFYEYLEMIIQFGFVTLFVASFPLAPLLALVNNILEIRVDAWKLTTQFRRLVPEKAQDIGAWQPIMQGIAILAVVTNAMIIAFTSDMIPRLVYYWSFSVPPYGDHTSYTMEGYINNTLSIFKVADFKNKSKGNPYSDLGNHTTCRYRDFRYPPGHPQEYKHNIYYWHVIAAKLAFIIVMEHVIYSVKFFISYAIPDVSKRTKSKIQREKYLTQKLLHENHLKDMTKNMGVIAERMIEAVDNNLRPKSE
The test is described as follows: LACT C2 assay (phosphatidylserine scramblase function assay). It is filed as cell-based. Conditions: FRT cells expressing human ANO6, 10 μM ionomycin; for inhibition at 0.1 µM: test compound 100 nM, read-out: Inhibition Level 100 nM; for inhibition at 1 µM: test compound 1 μM, read-out: Inhibition Level 1 μM. Put shortly:
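Inhibition was normalised between ionomycin-only (0%) and untreated (100%) wells, with triplicates averaged. Readout was background-corrected Lact-C2-GFP (500 nM) fluorescence from imaged cells. The cells were FRT cells stably expressing human ANO6, given compound at 1% DMSO for 10 min before a 10 min 10 μM ionomycin challenge.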

Test [3] addresses T1, human ANO6. The test is described as follows: YFP quenching assay (ANO6 ion channel activity). Type of test: cell-based. Conditions: 10 μM ionomycin; for inhibition at 1 µM: test compound 1 μM, read-out: Inhibition Level 1 μM; for inhibition at 30 µM: test compound 30 μM, read-out: Inhibition Level 30 μM. Put shortly:
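FRT cells stably expressing human ANO6 and YFP-H148Q/I152L/F46L, preincubated 10 min at 40° C with compounds (1% DMSO) in PBS. Quench read every 0.4 s after injecting 140 mM SCN- with 10 μM ionomycin; % inhibition from the 3.6–7.6 s fluorescence difference, normalised to no-ionomycin (100%) and ionomycin-only (0%) wells, duplicate or triplicate.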

Consider `O=C(Nc1cccc(F)c1)c1cccc(Nc2ncc(-c3ccoc3)cn2)c1` [Compound 176, N-(3-fluorophenyl)-3-((5-(furan-3-yl)pyrimidin-2-yl)amino)benzamide], for which the “Inhibition Level (retardation time, recalcification time)” value in test [1] was “C (compounds (30 μM) having less than 20 seconds of retardation time)”.
As for `O=C(N[C@@H]1C[C@H]1c1ccccc1)c1cccc(Nc2ccc(-c3cnccn3)cc2)c1` [Compound 173, N-((1R,2S)-2-phenylcyclopropyl)-3-((4-(pyrazin-2-yl)phenyl)amino)benzamide], the inhibition at 0.1 µM on human ANO6 [2] was under 30%. Moreover, the “Inhibition Level (retardation time, recalcification time)” value in test [1] is “B (the compounds (30 μM) having retardation time of 20 seconds or more to less than 50 seconds)”.
On to `O=C(NCCC12CC3CC(CC(C3)C1)C2)c1cccc(Nc2ccc(-c3cccc(F)c3)cn2)c1` [Compound 142, N-(2-(adamantan-1-yl)ethyl)-3-((5-(3-fluorophenyl)pyridin-2-yl)amino)benzamide], for which, on human ANO6 [2], the inhibition at 0.1 µM is at least 60% and the inhibition at 1 µM is at least 60%. Moreover, the “Inhibition Level (retardation time, recalcification time)” value in test [1] is reported as “A (the compounds (30 μM) having retardation time of 50 seconds or more)”.
With `O=C(Nc1cccc(F)c1)c1cccc(Nc2ccc(-c3ccccn3)cc2)c1` [Compound 154, N-(3-fluorophenyl)-3-((4-(pyridin-2-yl)phenyl)amino)benzamide], at human ANO6 [2], the inhibition at 0.1 µM was at least 60% and the inhibition at 1 µM is at least 60%. In test [1], the “Inhibition Level (retardation time, recalcification time)” value was “A (the compounds (30 μM) having retardation time of 50 seconds or more)”.
Regarding `O=C(N[C@@H]1C[C@H]1c1ccccc1)c1cccc(Nc2ccc(-c3cccnc3)cc2)c1` [Compound 161, N-((1R,2S)-2-phenylcyclopropyl)-3-((4-(pyridin-3-yl)phenyl)amino)benzamide], on human ANO6 [2], the inhibition at 0.1 µM was at least 60% and the inhibition at 1 µM is at least 60%. Moreover, in test [1], the “Inhibition Level (retardation time, recalcification time)” value is “A (the compounds (30 μM) having retardation time of 50 seconds or more)”.
On to `O=C(Nc1cccc(F)c1)c1cccc(Nc2ccc(-c3ccncn3)cc2)c1` [Compound 175, N-(3-fluorophenyl)-3-((4-(pyrimidin-4-yl)phenyl)amino)benzamide], for which, on human ANO6 [2], the inhibition at 0.1 µM was at least 60%. Also, the “Inhibition Level (retardation time, recalcification time)” value in test [1] was “B (the compounds (30 μM) having retardation time of 20 seconds or more to less than 50 seconds)”.
On the same counts, the results for `O=C(Nc1cccc(F)c1)c1cccc(Nc2ccc(-c3ncccn3)cc2)c1` [Compound 170, N-(3-fluorophenyl)-3-((4-(pyrimidin-2-yl)phenyl)amino)benzamide] are 30 to 60% and “B (the compounds (30 μM) having retardation time of 20 seconds or more to less than 50 seconds)”.
Taken in the same sequence, the figures for `O=C(N[C@@H]1C[C@H]1c1ccccc1)c1cccc(Nc2ccc(-c3ncccn3)cc2)c1` [Compound 171, N-((1R,2S)-2-phenylcyclopropyl)-3-((4-(pyrimidin-2-yl)phenyl)amino)benzamide] were under 30% and “C (compounds (30 μM) having less than 20 seconds of retardation time)”.
On the same counts, the results for `O=C(Nc1cccc(F)c1)c1cccc(Nc2ccc(-c3cnccn3)cc2)c1` [Compound 172, N-(3-fluorophenyl)-3-((4-(pyrazin-2-yl)phenyl)amino)benzamide] are at least 60% and “C (compounds (30 μM) having less than 20 seconds of retardation time)”.
As for `O=C(Nc1cccc(F)c1)c1cccc(Nc2ccc(-c3cncnc3)cc2)c1` [Compound 164, N-(3-fluorophenyl)-3-((4-(pyrimidin-5-yl)phenyl)amino)benzamide], at human ANO6 [2], the inhibition at 0.1 µM fell in the range of 30 to 60%. The “Inhibition Level (retardation time, recalcification time)” value in test [1] is “C (compounds (30 μM) having less than 20 seconds of retardation time)”.
Turning to `O=C(Nc1cccc(F)c1)c1cccc(Nc2ccc(-c3cccnc3)cc2)c1` [Compound 160, N-(3-fluorophenyl)-3-((4-(pyridin-3-yl)phenyl)amino)benzamide], on human ANO6 [2], the inhibition at 0.1 µM was at least 60% and the inhibition at 1 µM was at least 60%. Moreover, the “Inhibition Level (retardation time, recalcification time)” value in test [1] is given as “B (the compounds (30 μM) having retardation time of 20 seconds or more to less than 50 seconds)”.
As for `O=C(Nc1cccc(F)c1)c1cccc(Nc2ccc(-c3ccccc3)cn2)c1` [Compound 128, N-(3-fluorophenyl)-3-((5-phenylpyridin-2-yl)amino)benzamide], on human ANO6 [2], the inhibition at 0.1 µM is at least 60% and the inhibition at 1 µM was at least 60%. For the same compound, the “Inhibition Level (retardation time, recalcification time)” value in test [1] is “A (the compounds (30 μM) having retardation time of 50 seconds or more)”.
Turning to `O=C(N[C@@H]1C[C@H]1c1ccccc1)c1cccc(Nc2ccc(-c3cncnc3)cc2)c1` [Compound 165, N-((1R,2S)-2-phenylcyclopropyl)-3-((4-(pyrimidin-5-yl)phenyl)amino)benzamide], the inhibition at 0.1 µM at human ANO6 [2] was under 30%. In addition, the “Inhibition Level (retardation time, recalcification time)” value in test [1] is on record as “C (compounds (30 μM) having less than 20 seconds of retardation time)”.
Consider `CCCCNC(=O)c1cccc(Nc2ccc(-c3ccccc3)nn2)c1` [Compound A65], for which, on human ANO6 [3], the inhibition at 1 µM is at least 60% and the inhibition at 30 µM was at least 60%. At human ANO6 [2], the inhibition at 0.1 µM is under 30% and the inhibition at 1 µM was in the range of 30 to 60%.
As for `CSc1ccc(CNC(=O)c2cccc(Nc3ccc(-c4ccccc4)nn3)c2)cc1` [Compound A44], at human ANO6 [3], the inhibition at 1 µM fell in the range of 30 to 60% and the inhibition at 30 µM is at least 60%. For the same compound, on human ANO6 [2], the inhibition at 0.1 µM was under 30% and the inhibition at 1 µM lay in the range of 30 to 60%.
Consider `Cc1ccc(CNC(=O)c2cccc(Nc3ccc(-c4cccc(F)c4)cn3)c2)o1` [Compound 125, 3-{[5-(3-fluorophenyl)pyridin-2-yl]amino}-N-[(5-methylfuran-2-yl)methyl]benzamide], for which, on human ANO6 [3], the inhibition at 1 µM was at least 60%. On human ANO6 [2], the inhibition at 0.1 µM was under 30% and the inhibition at 1 µM is at least 60%.

The term inhibition denotes the percentage by which the read-out fell short of the control.
